In data set [1] the target is Hydroxycarboxylic acid receptor 2 (Homo sapiens) (UniProt Q8TDS4). In words: Displacement of [3H]nicotinic acid from human GPR109A receptor expressed in CHO-K1 cells at 25 uM. Format: cell-based.
Data set [2] has the same target. Nature of the data set: Displacement of [3H]nicotinic acid from human GPR109A receptor expressed in CHO-K1 cells at 2.5 uM. Format: cell-based. For orientation: In a radioligand displacement assay an active substance lowers the binding of a labelled ligand.
The nature of data set [3]: Plasma clearance in mouse. It is filed as ADME, organism-based.
Data set [4] can be described thus: Volume of distribution at steady state in mouse. Format: ADME, organism-based. The following applies: in vivo, read-out: Vdss.
Data set [5] can be described thus: Half life in mouse. Format: ADME, organism-based. The following applies: in vivo.
Data set [6] can be described thus: Cmax in mouse. The following applies: in vivo. It is filed as ADME, organism-based.
The test system of the next data set is Mus musculus. In words: Induction of vasodilation in mouse assessed as arbitrary units from vasodilation AUC curve at 100 mg/kg. Format: functional.
Data set [7] in a line: Oral bioavailability in mouse. It is filed as ADME, organism-based. To be noted: in vivo.

In general, clearance refers to the volume of plasma or blood freed of the substance per unit of time. The half-life is the time needed for the level to fall by half in the phase considered. Low values mean fast loss, high ones slow loss. What is called Cmax is the peak of the concentration-time curve. For orientation: bioavailability means the share of a dose that reaches the circulation, judged against a reference dose that is usually intravenous. Lower therefore signals poor availability.

Turning to `COc1ccc(OCC(=O)Nc2ccccc2C(=O)O)cc1`, the Activity in data set [1] came to 33%; in data set [2], 69%.

For the compound `O=C(COc1ccccc1)Nc1ccccc1C(=O)O`, the Activity in data set [1] was 40%; in data set [2], 78%.

For the compound `O=C(CCc1ccccc1)Nc1ccccc1C(=O)O`, the Activity in data set [1] worked out at 52%; in data set [2], 88%.

With `O=C(CCc1ccc2cc(O)ccc2c1)Nc1ccccc1C(=O)O`, the clearance in data set [3] amounted to 6.2 mL/min/kg. Further, the Vd in data set [4] is 0.7 L/kg. The compound further gave a half-life in data set [5] of 3.2 h. In data set [6], the peak level (Cmax) was 6.6 µM. In the data set on Mus musculus, the Activity was 59. Besides, the bioavailability in data set [7] was 55%.

Take `O=C(O)c1cccnc1` [NIACIN]: the Activity in the data set with Mus musculus worked out at 707.

The values above are taken from ChEMBL document CHEMBL1144179, “Molecular modeling aided design of nicotinic acid receptor GPR109A agonists” (Bioorg Med Chem Lett, 2008).
